Where two headings read alike, the source gives them in different places.
Experiments:
[1] = test system: Antioxidant response element; test: MitoOxTox: oxidative stress response in AREc32; settings: for EC10, linear: linear model fit
Description: (§1) All bioassay media components and the ERα-UAS-bla GripTite and PPARγ-UAS-bla cells were obtained from Thermo Fisher Scientific (Waltham, MA, USA). AREc32 reporter gene cells based on MCF7 were provided by C. Roland Wolf (Cancer Research UK); AhR CALUX cells (H4L7.5c2 derived from H4IIe) were provided by Michael Denison (UC Davis, USA); and SH-SY5Y cells were purchased from Sigma-Aldrich.
(§2) Cell culture conditions and bioassay protocols including response detection are provided in Text S2.1–2.4 and Table S3. − Cell viability was determined from cell confluency using an IncuCyte S3 Live-Cell Analysis System (Sartorius AG, Essen, Germany) before and after exposure, except for SH-SY5Y cells (live–dead staining with Nuclear Green LcS1 and propidium iodide, Abcam, UK). For metabolic activation experiments, cell viability was assessed using the ToxBLAzer DualScreen Kit (Thermo Fisher Scientific) to capture the remaining toxicity in ERα-UAS-bla GripTite after treatment with the aCYP catalyst (details in Text S2.4).
(§3) For ARE, the concentration that triggered an induction ratio of 1.5 (ECIR1.5) was used as the benchmark value, as detailed in Text S2.5. IC10 values also served as a threshold for data analysis in all assays; only concentrations below IC10 were considered when deriving EC10 or ECIR1.5. […]
(§4) S2: Cell culture and bioassays
(§5) S2.1: Cell Culturing Conditions
(§6) All suppliers and sources are given in detail in SI-Excel S3. The bioassay media for the different assays were prepared as follows: Assay medium for ER alpha-UAS-bla GripTite (ERα) and PPAR gamma-UAS-bla 293H (PPARγ) was prepared with 98% Opti-MEM, supplemented with 2% charcoal-stripped FBS, and 100 U/mL penicillin-streptomycin. MitoOxTox and AhR assay medium was comprised of 90% DMEM with GlutaMAX, supplemented with 10% FBS, and 100 U/mL penicillin-streptomycin. Neurotoxicity assay medium consisted of the neurobasal […]
(§7) (1 picture or pasted object on this page, not shown here) […]
(§8) medium, supplemented with 2% B-27 Supplement and 2 mM GlutaMAX Supplement. SH - SY5Y cells were differentiated with 10 µM all-trans retinoic acid prior to the assay.
(§9) S2.2: Cell Seeding and Incubation. For all bioassays, cell suspensions in the respective assay medium were dispensed into each well of 384-well plates using a MultiFlo Dispenser (Biotek, (now Agilent), Winooski, VT, U.S.). After seeding, the plates were incubated at 37° C and 5% CO₂ for […]. The final cell densities and plate types were as follows: Black poly-D-lysine coated 384-well plates (Product No. 354663, Corning Inc., NYC, U.S.) were used for PPARγ:
(§10) 6500 cells/well, ERα: 5000 cells/well. White 384-well plates with a clear bottom (Product No.
(§11) 781098, Greiner, Kremsmünster, Austria) were utilized for the MitoOxTox assay: 2650

SH-SY5Y cells [2] = settings: for IC10, linear: linear model; for logIC10: log-logistic model
Method: as §2, with “S2.4). […]” for “S2.4).”
We measured the cytotoxicity of BPA and its alternatives in HEK293H (PPARγ), HEK293T (ERα), H4IIe (AhR CALUX), MCF7 (ARE/MMP), and differentiated SH-SY5Y cells (Table S6). […]
as §8
S2.2: Cell Seeding and Incubation. For all bioassays, cell suspensions in the respective assay medium were dispensed into each well of 384-well plates using a MultiFlo Dispenser (Biotek, (now Agilent), Winooski, VT, U.S.). After seeding, the plates were incubated at 37° C and 5% […]
NYC, U.S.) for AhR: 3250 cells/well. Black Collagen I coated plates were used (Product No.
S2.3: Chemical Dosing and Assay Analysis Procedures. The dosing procedure and high-throughput assay workflow have been described in detail before. 9 The dosing concentrations […]
Stock solutions were then either added directly to the respective cell culture medium or evaporated under nitrogen, followed by replenishment with fresh medium. The final solvent content in each well was kept below 1% for methanol, 0% for acetonitrile.
Dosing plates were prepared as 11 -step serial dilutions using a Hamilton Microlab Star robotic system (Hamilton, Bonaduz, Switzerland), and chemicals were dosed in duplicates by transferring 10 μL twice from the dosing plates to the cell plates . After quantifying cell confluency as described in S2. 4., the exposed cells were incubated at 37° C and 5% CO₂ for an additional 24 h. All chemicals were tested in all assays with at least three independent […]
S2.4: Cell Viability Measurement s and bioanalytical protocols . The confluency as a measure of cell viability was determined with an IncuCyte S3 Live -Cell Analysis System (Sartorius AG, Essen, Germany). With this method the confluency of cells in a microscopy image are normalized to control wells without cells and compared before and after 24 hours of exposure.
This method has been described previously 13. Cell viability of SH-SY5Y cells was measured […]
propidium iodide (PI, Abcam, Cambridge, U.K.).14 Nuclear Green LCS1 is a membrane-permeable dye that stains the nuclei of all cells, whereas PI only enters cells with compromised membrane integrity (non-viable cells). After staining, live cells show green nuclei without red fluorescence, while dead cells display both green and red nuclear fluorescence due to PI […]
intercalation. […]

SH-SY5Y cells [3] = test: cells; settings: for EC10, linear: NOI bioassay, dosing range all, linear model; for EC10: Homo sapiens, SH-SY5Y
Description: as §1, §2, §3, §4, §5, §6, §7, §8, §9, §10, §11

[4] = NOI bioassay cytotoxicity, dosing range all
[5] = Bioassay ARE, dosing range all, log-logistic model fit
[6] = read-out: EC10, linear transformed
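Wherever Relative effect potency REPNOI is given: EC10 of BPA divided by EC10 of the test compound so values above 1 mean more potent.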
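Wherever Specificity ratio (SRbaseline) SRNOI is given: ratio of predicted baseline cytotoxicity IC10 to the neurite outgrowth inhibition EC10.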

Structure (SMILES) | logEC10 [1] | EC10, linear ([1]; Bioassay ARE, dosing range all) | IC10, linear (SH-SY5Y cells [2]; [4]) | logIC10 (SH-SY5Y cells [2]; [4]) | logEC10 (SH-SY5Y cells [3]) | EC10, linear (SH-SY5Y cells [3]) | logEC10 [1, 5] | EC10 (SH-SY5Y cells [3]; read-out: EC10, NOI) [M] | EC10 (SH-SY5Y cells [3]; read-out: EC10, NOI (M)) [M] | EC10 (SH-SY5Y cells [3]; [6]) [M] | EC10 (SH-SY5Y cells [3]; read-out: logEC10) [M] | IC10, linear transformed (SH-SY5Y cells [2]; [4]) | Toxic ratio (TR) TRNOI (SH-SY5Y cells [2]; against baseline cytotoxicity) | IC10, SH-S5Y5, NOI (SH-SY5Y cells [2]; cytotoxicity, NOI assay cells) [µM] | EC10 (SH-SY5Y cells [3]; read-out: EC10, linear) [M] | Specificity ratio (SRbaseline) SRNOI (SH-SY5Y cells [3]; against baseline cytotoxicity) | Specificity ratio (SRcytotoxicity) SRNOI (SH-SY5Y cells [3]; against experimental cytotoxicity) | Relative effect potency REPNOI (SH-SY5Y cells [3]; relative to BPA)
CC(C)(c1cc(Br)c(O)c(Br)c1)c1cc(Br)c(O)c(Br)c1 [TBBPA, 3,3',5,5'-Tetrabromobisphenol A] | no effect | no effect | no cytotoxicity | no cytotoxicity | no effect | no effect | – | – | – | – | – | – | – | – | – | – | – | –
CC(C)(c1cc(Cl)c(O)c(Cl)c1)c1cc(Cl)c(O)c(Cl)c1 [TCBPA, 2,2',6,6'-Tetrachlorobisphenol A] | – | no effect | 3.70E-08 | no cytotoxicity | – | masked by cytotoxicity | no effect | 0.000322 | 0.000322 | 0.000322 | 0.000324 | – | – | – | – | – | – | –
Cc1cc(Cc2cc(C)c(O)c(C)c2)cc(C)c1O [TMBPF, Bis(3,5-dimethyl-4-hydroxyphenyl)methane] | – | no effect | 1.62E-05 | -4.90 | – | – | no effect | 4.28e-06 | 4.28e-06 | 5.49e-06 | 4.27e-06 | 1.27E-05 | 0.73 | 12.7 | 5.06e-06 | 2.18 | 2.97 | 11.87
CC1(C)[C@H](O)C(C)(C)[C@H]1O [Trans TMCD] | – | no effect | no cytotoxicity | no cytotoxicity | – | – | no effect | – | – | 0.00415 | 0.00417 | – | – | – | 0.00531 | – | – | –

From publication PMC12392461, “Beyond Estrogenicity: A Comparative Assessment of Bisphenol A and Its Alternatives in In Vitro Assays Questions Safety of Replacements” (Environmental Science & Technology, 2025)
